According to PubChem BioAssay AID1259411 (Chemical Carcinogenesis Research Information System (CCRIS), 2018):
Calls of active or inactive are those of the source. The rule behind the calls is not given here.

Test system: rodent carcinogenicity bioassays, tumor incidence
Assay: CCRIS carcinogenicity studies
Outline: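 Archive of carcinogenicity, mutagenicity, tumor promotion and tumor inhibition results drawn from journals, NCI reports and other sources, expert-reviewed; covers 1985-2011 and is no longer updated.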

Measured: carcinogen call

CCN(N=O)C(N)=O
active: Species: HAMSTER, Strain/Sex: SYRIAN/FEMALE, Route: GAVAGE, Dose: 0, 12 MG/ML ((0.2 ML OF A SOLUTION IN ETHYL ACETATE/CORN OIL (1:2)) 1/WK FOR 20 WK (STUDY DURATION: LIFE SPAN), Tumor Site: Type of Lesion: SPLEEN: HEMANGIOSARCOMA, FORESTOMACH: SQUAMOUS CELL CARCINOMA OR PAPILLOMA active; positive | Species: HAMSTER, Strain/Sex: SYRIAN/MALE, Route: GAVAGE, Dose: 0, 12 MG/ML ((0.2 ML OF A SOLUTION IN ETHYL ACETATE/CORN OIL (1:2)) 1/WK FOR 20 WK (STUDY DURATION: 20 WK), Tumor Site: Type of Lesion: SPLEEN: HEMANGIOSARCOMA, FORESTOMACH: SQUAMOUS CELL CARCINOMA OR PAPILLOMA active; positive | Species: HAMSTER, Strain/Sex: SYRIAN/MALE, Route: INTRAPERITONEAL, Dose: 60, 274 MG/KG IN SODIUM CHLORIDE/SODIUM CITRATE ONCE, Tumor Site: Type of Lesion: FORESTOMACH: SQUAMOUS CELL PAPILLOMA active; positive | Species: MOUSE, Route: INTRAPERITONEAL, Tumor Site: Type of Lesion: LIVER, KIDNEY, OVARIES, LUNG, HARDERIAN GLAND, LYMPHATIC SYSTEM, STOMACH, Tumor Site: Type of Lesion: LIVER, KIDNEY, OVARIES, LUNG, HARDERIAN GLAND, LYMPHATIC SYSTEM, STOMACH active; positive | Species: MOUSE, Route: SUBCUTANEOUS, Tumor Site: Type of Lesion: LIVER, LUNG, LYMPHATIC SYSTEM, Tumor Site: Type of Lesion: LIVER, LUNG, LYMPHATIC SYSTEM active; positive | Species: RAT, Route: INTRAPERITONEAL, Tumor Site: Type of Lesion: LYMPHATIC SYSTEM: LYMPHOMA, HEMATOPOIETIC SYSTEM (LEUKEMIA) active; positive | Species: RAT, Route: INTRAVENOUS, Tumor Site: Type of Lesion: BRAIN, NERVOUS SYSTEM (PERIPHERAL), HEMATOPOIETIC SYSTEM (LEUKEMIA), UTERUS, VAGINA, Tumor Site: Type of Lesion: BRAIN, NERVOUS SYSTEM (PERIPHERAL), HEMATOPOIETIC SYSTEM (LEUKEMIA), UTERUS, VAGINA active; positive | Species: RAT, Route: ORAL, Tumor Site: Type of Lesion: BRAIN, NERVOUS SYSTEM (PERIPHERAL), HEMATOPOIETIC SYSTEM (LEUKEMIA), Tumor Site: Type of Lesion: BRAIN, NERVOUS SYSTEM (PERIPHERAL), HEMATOPOIETIC SYSTEM (LEUKEMIA) active; positive | Species: RAT, Route: PRE-NATAL EXPOSURE, Tumor Site: Type of Lesion: NERVOUS SYSTEM active; positive | Species: RAT, Route: SUBCUTANEOUS, Tumor Site: Type of Lesion: BRAIN, NERVOUS SYSTEM (PERIPHERAL) active; positive | Species: RAT, Strain/Sex: F344/FEMALE, Route: GAVAGE, Dose: 0, 6, 12 MG/ML (TOTAL DOSE 0; 0.4; 0.8 MMOL) IN 2 ML ETHYL ACETATE AND CORN OIL (1:2) 2/WK FOR 20 WK (STUDY DURATION: LI, Dose: 0, 6, 12 MG/ML (TOTAL DOSE 0; 0.4; 0.8 MMOL) IN 2 ML ETHYL ACETATE AND CORN OIL (1:2) 2/WK FOR 20 WK (STUDY DURATION: LI, Tumor Site: Type of Lesion: FORESTOMACH: SQUAMOUS CELL CARCINOMA, LUNG: TUMOR, MAMMARY GLAND: TUMOR, Tumor Site: Type of Lesion: FORESTOMACH: SQUAMOUS CELL CARCINOMA, LUNG: TUMOR, MAMMARY GLAND: TUMOR active; positive | Species: RAT, Strain/Sex: F344/FEMALE, Route: GAVAGE, Dose: 0, 6, 12 MG/ML IN 0.2 ML ETHYL ACETATE AND CORN OIL 2/WK FOR 20 WK (STUDY DURATION: LIFESPAN), Dose: 0, 6, 12 MG/ML IN 0.2 ML ETHYL ACETATE AND CORN OIL 2/WK FOR 20 WK (STUDY DURATION: LIFESPAN), Tumor Site: Type of Lesion: FORESTOMACH: TUMOR, LUNG: TUMOR, MAMMARY GLAND: TUMOR, UTERUS: TUMOR, ZYMBAL GLAND: TUMOR, Tumor Site: Type of Lesion: FORESTOMACH: TUMOR, LUNG: TUMOR, MAMMARY GLAND: TUMOR, UTERUS: TUMOR, ZYMBAL GLAND: TUMOR active; positive | Species: RAT, Strain/Sex: F344/FEMALE, Route: INTRAVESICULAR, Dose: 0, 1.2 MG 2/WK FOR 20 WK (STUDY DURATION: LIFETIME), Tumor Site: Type of Lesion: BLADDER: TUMOR active; positive | Species: RAT, Strain/Sex: F344/FEMALE, Route: INTRAVESICULAR, Dose: 0, 2.4 MG 2/WK FOR 14 WK (STUDY DURATION: LIFETIME), Tumor Site: Type of Lesion: BLADDER: TUMOR active; positive | Species: RAT, Strain/Sex: F344/FEMALE, Route: ORAL, Dose: 0, 0.3, 1, 3, 10 PPM IN DRINKING WATER FOR 104 WK (STUDY DURATION: 111 WK), Dose: 0, 0.3, 1, 3, 10 PPM IN DRINKING WATER FOR 104 WK (STUDY DURATION: 111 WK), Tumor Site: Type of Lesion: BRAIN: GLIOMA, UTERUS: ENDOMETRIAL STROMAL POLYP, MAMMARY GLAND: ADENOCARCINOMA, HEMATOPOIETIC SYSTEM: MONONUCLEAR CELL, Tumor Site: Type of Lesion: BRAIN: GLIOMA, UTERUS: ENDOMETRIAL STROMAL POLYP, MAMMARY GLAND: ADENOCARCINOMA, HEMATOPOIETIC SYSTEM: MONONUCLEAR CELL active; positive
